Laboratory results reported in patent US20070135448A1, “Use of cathepsin k inhibitors for treating of severe bone loss diseases” (priority 2003, published 2007).

How the values were obtained:
[1] = test system: ovariectomized (OVX) cynomolgus monkeys; experiment: DXA bone mineral density of lumbar spine and femur in OVX cynomolgus monkeys, 18 months oral treatment; type: in vivo, cynomolgus monkeys (Macaca fascicularis)
Experimental: The present, 18 month long study is performed in order to assess the effect of COMPOUND A on bone in a non-human primate model of osteoporosis.
(§1) One hundred purpose-bred female cynomolgus monkeys (Macaca fascicularis), 12-13 years of age with closed growth plates are used for this study conducted in compliance with GLP. Eighty animals underwent bilateral ovariectomy and monkeys assigned to the sham group (S) underwent sham surgery. They are dosed twice daily by oral gavage with vehicle (distilled water) or COMPOUND A maleate (COMPOUND A-AF) for 18 months (Table 1).
(§2) DXA (Dual Energy X-ray Absorptiometry) of the lumbar spine and femur is performed twice prior to and at 3 months intervals during treatment. Compression test of third lumbar vertebra and a three-point bending test for the midshaft femur are carried out according to standard procedures. In brief, the cranial and caudal ends of each vertebral body are cut off to obtain a vertebral body specimen with two parallel surfaces and a height of approximately 7 mm. Each specimen is placed between two plates and a load applied at a constant displacement rate of 6 mm/min until failure in an Instron Mechanical Testing Machine. The femur is placed on the lower supports of a three point bending fixture with the anterior side facing downward in an Instron Mechanical Testing Machine. Load is applied at a constant displacement rate of […] until failure.
(§3) All group data are first checked to ensure they meet the assumptions for parametric analysis (normality, homogeneity of variances). Data are transformed, if necessary, to meet the assumptions as closely as possible. Results using transformed data are used for interpretation. In general, data are analyzed by one-way analysis of variance (1-way ANOVA) for variables assessed only once during the treatment phase of the study. For variables assessed repeatedly during the treatment phase, a two-way (group, time) analysis of covariance (ANCOVA) with repeated measures on time is used. For each ANCOVA evaluation, average baseline data for individual animals is used as the covariate. Results are presented as Mean±SEM (standard error of mean).

[2] = test system: ovariectomized (OVX) cynomolgus monkeys; experiment: 3-point bending test of midshaft femur, OVX cynomolgus monkeys after 18 months treatment; type: in vivo, cynomolgus monkeys (Macaca fascicularis); conditions: mean ± SEM; for Max load: n = 19-20
Experimental: as §1, §2, §3

[3] = test system: ovariectomized (OVX) cynomolgus monkeys; experiment: Compression test of third lumbar vertebra (LV3), OVX cynomolgus monkeys after 18 months treatment; type: in vivo, cynomolgus monkeys (Macaca fascicularis)
Experimental: as §1
DXA (Dual Energy X-ray Absorptiometry) of the lumbar spine and femur is performed twice prior to and at 3 months intervals during treatment. Compression test of third lumbar vertebra and a three-point bending test for the midshaft femur are carried out according to standard procedures. In brief, the cranial and caudal ends of each vertebral body are cut off to obtain a vertebral body specimen with two parallel surfaces and a height of approximately 7 mm. […]
All group data are first checked to ensure they meet the assumptions for parametric analysis (normality, homogeneity of variances). […] In general, data are analyzed by one-way analysis of variance (1-way ANOVA) for variables assessed only once during the treatment phase of the study. For variables assessed repeatedly during the treatment phase, a two-way (group, time) analysis of covariance (ANCOVA) with repeated measures on time is used. […]

[4] = test system: ovariectomized (OVX) cynomolgus monkeys; experiment: Mineral apposition rate (MAR) at the femoral neck, OVX cynomolgus monkeys; type: in vivo, cynomolgus monkeys (Macaca fascicularis)
Experimental: as §1
Mineral apposition rate (MAR), an indicator of bone formation, is reduced at cancellous bone for the femoral neck by the mid and high dose (FIG. 6) consistent with the action of an inhibitor of bone turnover.

[5] = test system: ovariectomized (OVX) cynomolgus monkeys; experiment: Tolerability in the 18 month OVX cynomolgus monkey study; type: in vivo; conditions: for Tolerability: 18 months
Experimental: as §1
Ovariectomized (OVX) cynomolgus monkeys are treated orally for 18 months with 3, 10, or 50/30 mg/kg COMPOUND A maleate twice daily (bid).

postmenopausal women = experiment: 12-week double-blind placebo controlled phase IIA study, biochemical markers of bone resorption and formation; type: in vivo, human
Experimental: In a 12-week treatment, multicenter, double-blind, randomized, placebo-controlled, parallel group, a dose-ranging, safety, tolerability and efficacy trial with Compound A in postmenopausal women, with 3 weeks follow-up is conducted.
The primary objectives of the study are to assess the effect of Compound A on biochemical markers of bone resorption and bone formation, and to evaluate its safety and tolerability profile. Secondary objectives are to assess the changes in biochemical markers after the end of treatment, and to study the pharmacokinetics of Compound A and its metabolite during and after 12 weeks of treatment.
The population of subjects is normal healthy postmenopausal women. The reason for not investigating osteopenic women is the following: The efficacy endpoints of the study are biochemical markers of bone turnover. These variables are not directly correlated with BMD in man. […] They are at least 5 years postinenopause, mainly because biomarkers are expected to fluctuate less in these women than in the perimenopause. […]
Four doses are tested, 5, 10, 25, and 50 mg od. The duration of the study is 12 weeks, with a 3-week follow-up, 12 weeks treatment allows to assess the timecourse of biomarkers of both, bone resorption and bone formation and to ascertain that a steady-state in biomarkers is achieved.

[6] = High group: 2 × 50 mg/kg/day 1st month, 2 × 30 months 2-18, oral
[7] = High group: 2 × 50 mg/kg/day 1st month, 2 × 30 months 2-18, oral, * p < 0.05 versus OVX
[8] = Low group: 2 × 3 mg/kg/day oral, 18 months
[9] = Low group: 2 × 3 mg/kg/day oral, 18 months, * p < 0.05 versus OVX
[10] = Mid group: 2 × 10 mg/kg/day oral, 18 months

SMILES: CCCN1CCN(c2ccc(C(=O)NC3(C(=O)NCC#N)CCCCC3)cc2)CC1 [Compound A, N-[1-(cyanomethyl-carbamoyl)-cyclohexyl]-4-(4-propyl-piperazin-1-yl)-benzamide]
- Whole femur BMD (DXA) compared to group O (OVX) ([1]; all three dose levels, over the whole 18 months period): significant increase
- Lumbar spine LV1-4 BMD (DXA), effect versus OVX ([1]; all three doses (3, 10, 50/30 mg/kg bid), 18 months, p<0.05 versus OVX): inhibit the effect of OVX
- Lumbar spine LV1-4 BMD (DXA), efficacy of group H relative to other doses ([1]; group H, 50/30 mg/kg bid): tended to be less efficacious
- Anterior-posterior diameter of the femur midshaft ([1]; groups L and H versus groups S and O): tends to be larger
- Whole femur BMD (DXA) compared to sham ([1]; treated groups, significant at month 9 for groups L and H and at month 18 for group M): even above sham for most time points
- Moment of inertia [2, 6]: 322 ± 20 mm^4
- Ultimate strength [2, 6]: 196 ± 4 N/mm^2
- Energy [2, 7]: 1276 ± 87 * mJ
- Toughness [2, 7]: 3.6 ± 0.2 MJ/m³
- Max load [2, 6]: 973 ± 45 N
- Moment of inertia [2, 8]: 322 ± 20 mm^4
- Ultimate strength [2, 8]: 195 ± 5 N/mm^2
- Energy [2, 9]: 1305 ± 91 * mJ
- Toughness [2, 9]: 3.7 ± 0.2 MJ/m³
- Max load [2, 8]: 972 ± 38 N
- Energy [2, 10]: 1126 ± 88 mJ
- Moment of inertia [2, 10]: 290 ± 16 mm^4
- Toughness [2, 10]: 3.3 ± 0.2 MJ/m³
- Ultimate strength [2, 10]: 193 ± 3 N/mm^2
- Max load [2, 10]: 894 ± 39 N
- Maximum load in LV3 compression test versus OVX ([3]; all treatment groups (L, M, H), 18 months): increase maximum load
- Maximum load in LV3 compression test, group H ([3]; group H, 50/30 mg/kg bid, p<0.01 versus OVX, p<0.05 versus Sham): increased above the group S level
- Mineral apposition rate (MAR) at the periosteal side of the femoral neck ([4]; all doses, even the low dose is active): highly significantly increased
- Mineral apposition rate (MAR) at cancellous bone for the femoral neck ([4]; mid and high dose): reduced
- Food intake and body weight ([5]; 50 mg/kg bid oral, first month (then reduced to 30 mg/kg bid)): decreases in food intake and body weight
- Tolerability ([5]; 3 and 10 mg/kg bid oral): well tolerated
- Body weight gain ([5]; High group after reduction to 30 mg/kg bid, until end of study): remains significantly lower until the end of the study
- Tolerability ([5]; OVX cynomolgus monkeys, oral twice daily, overall): generally well tolerated
- Bone resorption marker serum CTX versus placebo (postmenopausal women; all doses except 5 mg (10, 25, 50 mg od), all time points, p<0.001): significant difference
- Action on bone resorption marker (sCTX1) (postmenopausal women; postmenopausal women, 5, 10, 25, 50 mg od, 12 weeks): potent and rapid action
- Bone formation markers (serum osteocalcin, BSAP) over time (postmenopausal women; postmenopausal women, 12 weeks): the decrease of suppression is less than that seen with the bone resorption markers
- Other resorption biomarkers (serum NTX, urinary NTX) (postmenopausal women; postmenopausal women, 12 weeks): support results seen with serum CTX
